These are literature values, as cited in patent US20030129242A1, “Sterile filtered nanoparticulate formulations of budesonide and beclomethasone having tyloxapol as a surface stabilizer” (priority 2002, published 2003).

For `CCCC1O[C@@H]2C[C@H]3C4CCC5=CC(=O)C=CC5(C)[C@H]4[C@@H](O)CC3(C)C2(C(=O)CO)O1` (mixture of isomers) [Budesonide, (RS)-11,16, 17,21-Tetrahydroxy-pregna-1,4-diene-3,20-dione cyclic 16,17-acetal with butraldehyde], the solubility in water entry was “practically insoluble”. Also, the solubility in chloroform entry (chloroform) is recorded as “freely soluble”. For the same compound, under “ethanol”, the solubility in ethanol result was “sparingly soluble”. The solubility in heptane entry (heptane) is “practically insoluble”.
On to `CC1(C)O[C@@H]2C[C@H]3[C@@H]4C[C@H](F)C5=CC(=O)C=C[C@]5(C)[C@H]4[C@@H](O)C[C@]3(C)[C@]2(C(=O)CO)O1` [Flunisolide, 6α-fluoro-11β, 16α, 17,21-tetrahydroxy-pregna-1,4-diene-3,20-dione cyclic-16,17-acetal with acetone], for which the solubility in water entry is given as “practically insoluble”.
